Assay results: ChEMBL document CHEMBL6120971 (J Med Chem, 2024)
Active and inactive are the calls of the source. No cut-off for these calls is given here.

Legend:
[1] = system: MKN-45; assay: Induction of c-MET degradation in human MKN-45 cells assessed as residual activity at 100 nM incubated for 24 hrs by Western blot analysis (reference value: 100 %); assay type: cell-based
[2] = target: T1, von Hippel-Lindau disease tumor suppressor/Hepatocyte growth factor receptor (Homo sapiens, UniProt P08581+P40337); assay: PROTAC activity at VHL/c-MET in human MKN-45 cells assessed as induction of c-MET degradation by measuring residual activity at 100 nM incubated for 24 hrs by Western blot analysis (reference value: 100 %); assay type: cell-based
Target sequence in this assay (P40337 whole entry partner): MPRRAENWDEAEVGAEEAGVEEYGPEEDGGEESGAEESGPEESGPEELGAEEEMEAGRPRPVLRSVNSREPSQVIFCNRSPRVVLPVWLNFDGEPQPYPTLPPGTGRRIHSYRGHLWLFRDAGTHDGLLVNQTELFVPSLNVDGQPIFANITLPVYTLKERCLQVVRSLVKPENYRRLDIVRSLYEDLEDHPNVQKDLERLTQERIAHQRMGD
Target sequence in this assay (P08581 25-1390 limits assumed): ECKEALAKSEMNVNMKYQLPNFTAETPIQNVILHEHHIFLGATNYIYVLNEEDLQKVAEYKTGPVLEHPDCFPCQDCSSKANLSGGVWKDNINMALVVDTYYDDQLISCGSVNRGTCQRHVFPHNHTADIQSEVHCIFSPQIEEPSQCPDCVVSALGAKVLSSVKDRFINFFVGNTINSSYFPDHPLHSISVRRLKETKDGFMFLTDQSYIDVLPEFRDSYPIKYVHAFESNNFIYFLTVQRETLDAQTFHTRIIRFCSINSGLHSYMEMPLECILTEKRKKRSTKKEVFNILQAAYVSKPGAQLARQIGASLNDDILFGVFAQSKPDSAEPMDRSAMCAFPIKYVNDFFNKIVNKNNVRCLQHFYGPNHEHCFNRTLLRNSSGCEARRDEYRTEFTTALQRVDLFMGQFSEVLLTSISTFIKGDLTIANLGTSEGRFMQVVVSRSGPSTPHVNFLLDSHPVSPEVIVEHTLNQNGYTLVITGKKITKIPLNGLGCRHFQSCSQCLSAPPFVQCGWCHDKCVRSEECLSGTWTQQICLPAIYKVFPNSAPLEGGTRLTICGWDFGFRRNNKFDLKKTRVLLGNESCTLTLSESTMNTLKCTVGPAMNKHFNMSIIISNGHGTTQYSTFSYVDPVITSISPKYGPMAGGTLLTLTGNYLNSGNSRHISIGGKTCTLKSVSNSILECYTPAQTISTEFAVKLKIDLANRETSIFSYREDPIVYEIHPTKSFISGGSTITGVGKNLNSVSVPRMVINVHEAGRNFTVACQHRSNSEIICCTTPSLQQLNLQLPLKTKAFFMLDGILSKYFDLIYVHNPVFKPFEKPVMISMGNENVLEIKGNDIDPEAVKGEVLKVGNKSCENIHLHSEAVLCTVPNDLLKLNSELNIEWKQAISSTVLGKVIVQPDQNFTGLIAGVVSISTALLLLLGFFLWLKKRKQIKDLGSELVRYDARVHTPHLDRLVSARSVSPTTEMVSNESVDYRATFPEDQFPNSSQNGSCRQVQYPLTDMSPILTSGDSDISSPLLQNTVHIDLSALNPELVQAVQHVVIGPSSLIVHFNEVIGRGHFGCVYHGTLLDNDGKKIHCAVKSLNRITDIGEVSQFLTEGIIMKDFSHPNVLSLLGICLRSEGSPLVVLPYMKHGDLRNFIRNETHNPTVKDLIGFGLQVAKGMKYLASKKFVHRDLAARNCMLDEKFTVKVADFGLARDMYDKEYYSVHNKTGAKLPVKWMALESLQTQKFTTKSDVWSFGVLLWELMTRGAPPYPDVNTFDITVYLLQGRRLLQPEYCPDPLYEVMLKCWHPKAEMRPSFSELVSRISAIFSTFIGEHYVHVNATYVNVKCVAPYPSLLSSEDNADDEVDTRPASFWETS

[3] = system: MKN-45; assay: Antiproliferative activity against human MKN-45 cells incubated for 72 hrs by CCK8 assay; assay type: functional, cell-based; conditions: MKN-45, 72 h
[4] = target: T1, von Hippel-Lindau disease tumor suppressor/Hepatocyte growth factor receptor; assay: PROTAC activity at VHL/c-MET in human MKN-45 cells assessed as induction of c-MET degradation at 100 to 1000 nM incubated for 24 hrs by Western blot analysis relative to control; assay type: cell-based; conditions: dose 100-1000 nM
Target sequence in this assay (P40337 whole entry partner): as the sequence (P40337 whole entry partner) above
Target sequence in this assay (P08581 25-1390 limits assumed): as the sequence (P08581 25-1390 limits assumed) above

[5] = target: T2, Protein cereblon/Hepatocyte growth factor receptor (Homo sapiens, UniProt P08581+Q96SW2); assay: PROTAC activity at CRBN/c-MET in human MKN-45 cells assessed as induction of c-MET degradation at 1000 nM incubated for 24 hrs by Western blot analysis; assay type: cell-based
T2 sequence (P08581 25-1390 limits assumed): as above
T2 sequence (Q96SW2 whole entry partner): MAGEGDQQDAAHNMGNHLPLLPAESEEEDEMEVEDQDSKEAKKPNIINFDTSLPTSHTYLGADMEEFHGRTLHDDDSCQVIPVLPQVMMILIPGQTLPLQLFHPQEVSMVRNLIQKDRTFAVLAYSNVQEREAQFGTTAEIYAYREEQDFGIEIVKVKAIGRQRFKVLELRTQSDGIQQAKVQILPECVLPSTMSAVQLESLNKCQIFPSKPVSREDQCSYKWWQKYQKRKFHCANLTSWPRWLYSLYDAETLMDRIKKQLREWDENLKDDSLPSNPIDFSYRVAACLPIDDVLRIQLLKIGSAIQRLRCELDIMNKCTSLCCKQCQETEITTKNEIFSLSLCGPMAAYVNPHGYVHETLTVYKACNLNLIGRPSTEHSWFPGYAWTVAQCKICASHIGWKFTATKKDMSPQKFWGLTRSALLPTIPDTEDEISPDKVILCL

[6] = target: T2, Protein cereblon/Hepatocyte growth factor receptor; assay: PROTAC activity at CRBN/c-MET in human MKN-45 cells assessed as induction of c-MET degradation at 3.125 to 50 nM by Western blot analysis; assay type: cell-based; conditions: dose 3.125-50 nM
[7] = target: T1, von Hippel-Lindau disease tumor suppressor/Hepatocyte growth factor receptor; assay: PROTAC activity at VHL/c-MET (unknown origin); assay type: protein
Target sequence in this assay (P08581 whole entry): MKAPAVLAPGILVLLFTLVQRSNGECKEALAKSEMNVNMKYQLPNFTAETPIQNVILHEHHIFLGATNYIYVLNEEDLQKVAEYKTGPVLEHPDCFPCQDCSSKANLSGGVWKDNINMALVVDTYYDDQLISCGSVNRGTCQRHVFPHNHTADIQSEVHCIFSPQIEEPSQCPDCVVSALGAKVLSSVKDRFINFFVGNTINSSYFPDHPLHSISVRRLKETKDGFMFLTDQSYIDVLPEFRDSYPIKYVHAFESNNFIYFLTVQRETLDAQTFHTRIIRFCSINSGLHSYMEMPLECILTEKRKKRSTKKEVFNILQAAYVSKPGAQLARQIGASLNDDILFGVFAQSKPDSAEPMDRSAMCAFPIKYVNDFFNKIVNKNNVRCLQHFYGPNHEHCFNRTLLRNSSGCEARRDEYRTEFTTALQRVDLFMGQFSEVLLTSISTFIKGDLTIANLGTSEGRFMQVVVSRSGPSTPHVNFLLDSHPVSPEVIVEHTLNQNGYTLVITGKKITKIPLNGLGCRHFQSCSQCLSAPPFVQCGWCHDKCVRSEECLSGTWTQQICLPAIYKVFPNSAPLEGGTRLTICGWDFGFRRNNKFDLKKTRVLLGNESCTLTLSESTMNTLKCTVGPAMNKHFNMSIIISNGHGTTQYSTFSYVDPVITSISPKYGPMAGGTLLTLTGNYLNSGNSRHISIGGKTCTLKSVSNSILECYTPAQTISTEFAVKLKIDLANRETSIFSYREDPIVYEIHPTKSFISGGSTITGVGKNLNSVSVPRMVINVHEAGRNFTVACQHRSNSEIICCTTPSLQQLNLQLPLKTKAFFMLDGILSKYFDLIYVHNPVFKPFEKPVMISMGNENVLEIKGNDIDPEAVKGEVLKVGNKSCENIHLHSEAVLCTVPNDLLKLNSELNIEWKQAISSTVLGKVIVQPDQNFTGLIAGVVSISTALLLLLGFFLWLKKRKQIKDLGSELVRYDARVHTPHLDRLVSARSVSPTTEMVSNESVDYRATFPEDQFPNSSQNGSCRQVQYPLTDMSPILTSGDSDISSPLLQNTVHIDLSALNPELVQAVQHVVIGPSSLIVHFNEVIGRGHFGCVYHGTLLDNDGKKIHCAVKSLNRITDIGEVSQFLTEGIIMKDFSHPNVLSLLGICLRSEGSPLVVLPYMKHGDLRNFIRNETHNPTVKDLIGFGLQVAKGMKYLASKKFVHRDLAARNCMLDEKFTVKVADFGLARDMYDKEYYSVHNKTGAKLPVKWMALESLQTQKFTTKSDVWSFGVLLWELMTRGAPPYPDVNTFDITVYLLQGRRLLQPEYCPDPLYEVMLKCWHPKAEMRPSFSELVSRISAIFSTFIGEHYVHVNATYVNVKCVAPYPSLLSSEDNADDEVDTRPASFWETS
Target sequence in this assay (P40337 whole entry): as the sequence (P40337 whole entry partner) above

SMILES | Activity [2] | IC50 [3] | other results
CN1CCC(COc2cnc(-c3cccc(Cn4nc(-c5cccc(C#N)c5)ccc4=O)c3)nc2)CC1 |  |  | Activity [1]: 107%
Cc1ncsc1-c1ccc([C@H](C)NC(=O)[C@@H]2C[C@@H](O)CN2C(=O)[C@@H](NC(=O)CCCCCCC(=O)N2CCC(COc3cnc(-c4cccc(Cn5nc(-c6cccc(C#N)c6)ccc5=O)c4)nc3)CC2)C(C)(C)C)cc1 | 64% | 35.5 nM | 
Cc1ncsc1-c1ccc([C@H](C)NC(=O)[C@@H]2C[C@@H](O)CN2C(=O)[C@@H](NC(=O)CCCCCCCCCCC(=O)N2CCC(COc3cnc(-c4cccc(Cn5nc(-c6cccc(C#N)c6)ccc5=O)c4)nc3)CC2)C(C)(C)C)cc1 | 56% | 149 nM | 
O=C(COc1cccc2c1C(=O)N(C1CCC(=O)NC1=O)C2=O)NCCCCCCCCCCNC(=O)c1ccc(-c2cnc3ncc(Cc4ccc5ncccc5c4)n3n2)cc1F (stereo unspecified) |  | 27.3 nM | Activity [5]: inactive
Cc1ncsc1-c1ccc([C@H](C)NC(=O)[C@@H]2C[C@@H](O)CN2C(=O)[C@@H](NC(=O)CCOCCOCCC(=O)N2CCC(n3cc(-c4cnc(N)c(O[C@H](C)c5c(Cl)ccc(F)c5Cl)c4)cn3)CC2)C(C)(C)C)cc1 | 107% |  | 
Cc1ncsc1-c1ccc([C@H](C)NC(=O)[C@@H]2C[C@@H](O)CN2C(=O)[C@@H](NC(=O)CCOCCOCCOCCC(=O)N2CCC(n3cc(-c4cnc(N)c(O[C@H](C)c5c(Cl)ccc(F)c5Cl)c4)cn3)CC2)C(C)(C)C)cc1 | 106% |  | 
Cc1ncsc1-c1ccc([C@H](C)NC(=O)[C@@H]2C[C@@H](O)CN2C(=O)[C@@H](NC(=O)CCCCC(=O)N2CCC(n3cc(-c4cnc(N)c(O[C@H](C)c5c(Cl)ccc(F)c5Cl)c4)cn3)CC2)C(C)(C)C)cc1 | 100% | > 200 nM | 
C[C@@H](Oc1cc(-c2cnn(C3CCNCC3)c2)cnc1N)c1c(Cl)ccc(F)c1Cl |  |  | Activity [1]: 110%
Cc1ncsc1-c1ccc([C@H](C)NC(=O)[C@@H]2C[C@@H](O)CN2C(=O)[C@@H](NC(=O)CN2CCN(CCCCCC(=O)N3CCC(n4cc(-c5cnc(N)c(O[C@H](C)c6c(Cl)ccc(F)c6Cl)c5)cn4)CC3)CC2)C(C)(C)C)cc1 | 115% |  | 
Cc1ncsc1-c1ccc([C@H](C)NC(=O)[C@@H]2C[C@@H](O)CN2C(=O)[C@@H](NC(=O)CCCCCCCCCCC(=O)N2CCC(n3cc(-c4cnc(N)c(O[C@H](C)c5c(Cl)ccc(F)c5Cl)c4)cn3)CC2)C(C)(C)C)cc1 | 73% | > 200 nM | 
Cc1ncsc1-c1ccc([C@H](C)NC(=O)[C@@H]2C[C@@H](O)CN2C(=O)[C@@H](NC(=O)CCOCCOCCOCCOCCC(=O)N2CCC(COc3cnc(-c4cccc(Cn5nc(-c6cccc(C#N)c6)ccc5=O)c4)nc3)CC2)C(C)(C)C)cc1 | 62% |  | 
CN1C(=O)CCC(N2C(=O)c3ccc(N4CCN(CC5CCN(C(=O)c6ccc(-c7cnc8ncc(Cc9ccc%10ncccc%10c9)n8n7)cc6F)CC5)CC4)cc3C2=O)C1=O (stereo unspecified) |  | 73.5 nM | Activity [6]: inactive
Cc1ncsc1-c1ccc([C@H](C)NC(=O)[C@@H]2C[C@@H](O)CN2C(=O)[C@@H](NC(=O)CCOCCOCCOCCC(=O)N2CCC(COc3cnc(-c4cccc(Cn5nc(-c6cccc(C#N)c6)ccc5=O)c4)nc3)CC2)C(C)(C)C)cc1 | 56% |  | 
Cc1ncsc1-c1ccc([C@H](C)NC(=O)[C@@H]2C[C@@H](O)CN2C(=O)[C@@H](NC(=O)CCCCCCC(=O)N2CCC(n3cc(-c4cnc(N)c(O[C@H](C)c5c(Cl)ccc(F)c5Cl)c4)cn3)CC2)C(C)(C)C)cc1 | 78% | > 200 nM | 
Cc1ncsc1-c1ccc([C@H](C)NC(=O)[C@@H]2C[C@@H](O)CN2C(=O)[C@@H](NC(=O)CCOCCOCCC(=O)N2CCC(COc3cnc(-c4cccc(Cn5nc(-c6cccc(C#N)c6)ccc5=O)c4)nc3)CC2)C(C)(C)C)cc1 | 66% |  | 
O=C(COc1cccc2c1C(=O)N(C1CCC(=O)NC1=O)C2=O)NCCCCCCCCNC(=O)c1ccc(-c2cnc3ncc(Cc4ccc5ncccc5c4)n3n2)cc1F (stereo unspecified) |  | 15.3 nM | Activity [5]: inactive
COc1cc2c(Oc3ccc(NC(=O)C4(C(=O)Nc5ccc(F)cc5)CC4)cc3F)ccnc2cc1OCCCOCCCOCCC(=O)N[C@H](C(=O)N1C[C@H](O)C[C@H]1C(=O)NCc1ccc(-c2scnc2C)cc1)C(C)(C)C |  |  | DC50 [7]: > 10 nM
Cc1ncsc1-c1ccc([C@H](C)NC(=O)[C@@H]2C[C@@H](O)CN2C(=O)[C@@H](NC(=O)CCOCCOCCOCCOCCC(=O)N2CCC(n3cc(-c4cnc(N)c(O[C@H](C)c5c(Cl)ccc(F)c5Cl)c4)cn3)CC2)C(C)(C)C)cc1 | 127% |  | 

Now from value to molecule, other results behind:

Activity [2] | IC50 [3] | SMILES | other results
61% |  | Cc1ncsc1-c1ccc([C@H](C)NC(=O)[C@@H]2C[C@@H](O)CN2C(=O)[C@@H](NC(=O)CN2CCN(CCCC(=O)N3CCC(COc4cnc(-c5cccc(Cn6nc(-c7cccc(C#N)c7)ccc6=O)c5)nc4)CC3)CC2)C(C)(C)C)cc1 | 
70% |  | Cc1ncsc1-c1ccc([C@H](C)NC(=O)[C@@H]2C[C@@H](O)CN2C(=O)[C@@H](NC(=O)COCCOCCNC(=O)c2ccc(-c3cnc4ncc(Cc5ccc6ncccc6c5)n4n3)cc2F)C(C)(C)C)cc1 | 
 | 47.8 nM | Cc1ncsc1-c1ccc([C@H](C)NC(=O)[C@@H]2C[C@@H](O)CN2C(=O)[C@@H](NC(=O)CCCCCCCCCCNC(=O)c2ccc(-c3cnc4ncc(Cc5ccc6ncccc6c5)n4n3)cc2F)C(C)(C)C)cc1 | 
19% | 52.3 nM | Cc1ncsc1-c1ccc([C@H](C)NC(=O)[C@@H]2C[C@@H](O)CN2C(=O)[C@@H](NC(=O)CCCCCCCNC(=O)c2ccc(-c3cnc4ncc(Cc5ccc6ncccc6c5)n4n3)cc2F)C(C)(C)C)cc1 | Activity [4]: > 80%
71% |  | Cc1ncsc1-c1ccc([C@H](C)NC(=O)[C@@H]2C[C@@H](O)CN2C(=O)[C@@H](NC(=O)CN2CCN(CCCCCC(=O)N3CCC(COc4cnc(-c5cccc(Cn6nc(-c7cccc(C#N)c7)ccc6=O)c5)nc4)CC3)CC2)C(C)(C)C)cc1 | 
 | 44.7 nM | Cc1ncsc1-c1ccc([C@H](C)NC(=O)[C@@H]2C[C@@H](O)CN2C(=O)[C@@H](NC(=O)CCCCCCCCNC(=O)c2ccc(-c3cnc4ncc(Cc5ccc6ncccc6c5)n4n3)cc2F)C(C)(C)C)cc1 | 
68% | 74.9 nM | Cc1ncsc1-c1ccc([C@H](C)NC(=O)[C@@H]2C[C@@H](O)CN2C(=O)[C@@H](NC(=O)CCCCCNC(=O)c2ccc(-c3cnc4ncc(Cc5ccc6ncccc6c5)n4n3)cc2F)C(C)(C)C)cc1 | 
79% |  | Cc1ncsc1-c1ccc([C@H](C)NC(=O)[C@@H]2C[C@@H](O)CN2C(=O)[C@@H](NC(=O)CN2CCN(CCCCCCNC(=O)c3ccc(-c4cnc5ncc(Cc6ccc7ncccc7c6)n5n4)cc3F)CC2)C(C)(C)C)cc1 | 
40% |  | Cc1ncsc1-c1ccc([C@H](C)NC(=O)[C@@H]2C[C@@H](O)CN2C(=O)[C@@H](NC(=O)CN2CCN(CC(=O)N3CCC(COc4cnc(-c5cccc(Cn6nc(-c7cccc(C#N)c7)ccc6=O)c5)nc4)CC3)CC2)C(C)(C)C)cc1 | 
22% | 20.5 nM | Cc1ncsc1-c1ccc([C@H](C)NC(=O)[C@@H]2C[C@@H](O)CN2C(=O)[C@@H](NC(=O)CCCCCCCCCNC(=O)c2ccc(-c3cnc4ncc(Cc5ccc6ncccc6c5)n4n3)cc2F)C(C)(C)C)cc1 | 
75% |  | Cc1ncsc1-c1ccc([C@H](C)NC(=O)[C@@H]2C[C@@H](O)CN2C(=O)[C@@H](NC(=O)COCCOCCOCCOCCNC(=O)c2ccc(-c3cnc4ncc(Cc5ccc6ncccc6c5)n4n3)cc2F)C(C)(C)C)cc1 | 
111% |  | Cc1ncsc1-c1ccc([C@H](C)NC(=O)[C@@H]2C[C@@H](O)CN2C(=O)[C@@H](NC(=O)CN2CCN(CCCC(=O)N3CCC(n4cc(-c5cnc(N)c(O[C@H](C)c6c(Cl)ccc(F)c6Cl)c5)cn4)CC3)CC2)C(C)(C)C)cc1 | 
61% |  | Cc1ncsc1-c1ccc([C@H](C)NC(=O)[C@@H]2C[C@@H](O)CN2C(=O)[C@@H](NC(=O)CN2CCN(CCNC(=O)c3ccc(-c4cnc5ncc(Cc6ccc7ncccc7c6)n5n4)cc3F)CC2)C(C)(C)C)cc1 | 
123% |  | Cc1ncsc1-c1ccc([C@H](C)NC(=O)[C@@H]2C[C@@H](O)CN2C(=O)[C@@H](NC(=O)CN2CCN(CC(=O)N3CCC(n4cc(-c5cnc(N)c(O[C@H](C)c6c(Cl)ccc(F)c6Cl)c5)cn4)CC3)CC2)C(C)(C)C)cc1 | 
78% |  | Cc1ncsc1-c1ccc([C@H](C)NC(=O)[C@@H]2C[C@@H](O)CN2C(=O)[C@@H](NC(=O)CN2CCN(CCCCNC(=O)c3ccc(-c4cnc5ncc(Cc6ccc7ncccc7c6)n5n4)cc3F)CC2)C(C)(C)C)cc1 | 
51% | 29.1 nM | Cc1ncsc1-c1ccc([C@H](C)NC(=O)[C@@H]2C[C@@H](O)CN2C(=O)[C@@H](NC(=O)CCCCCCCCCCCNC(=O)c2ccc(-c3cnc4ncc(Cc5ccc6ncccc6c5)n4n3)cc2F)C(C)(C)C)cc1 | 
74% | > 200 nM | Cc1ncsc1-c1ccc([C@H](C)NC(=O)[C@@H]2C[C@@H](O)CN2C(=O)[C@@H](NC(=O)CCCCC(=O)N2CCC(COc3cnc(-c4cccc(Cn5nc(-c6cccc(C#N)c6)ccc5=O)c4)nc3)CC2)C(C)(C)C)cc1 | 
73% |  | Cc1ncsc1-c1ccc([C@H](C)NC(=O)[C@@H]2C[C@@H](O)CN2C(=O)[C@@H](NC(=O)COCCOCCOCCNC(=O)c2ccc(-c3cnc4ncc(Cc5ccc6ncccc6c5)n4n3)cc2F)C(C)(C)C)cc1 | 
 | > 200 nM | Cc1ncsc1-c1ccc([C@H](C)NC(=O)[C@@H]2C[C@@H](O)CN2C(=O)[C@@H](NC(=O)CCCCCCNC(=O)c2ccc(-c3cnc4ncc(Cc5ccc6ncccc6c5)n4n3)cc2F)C(C)(C)C)cc1 | 
